Measured values as given in patent US11077167B2, “Agent for promoting skeletal muscle injury repair” (Osaka University, priority 2017, dated 2021).

System: angiogenesis
Assay: Angiogenic activity
Details: truncated peptides compared with SVVYGLR; confirmed by the present inventors, no method given

SVVYGL
angiogenic activity: retain the angiogenic activity of SVVYGLR

VVYGLR
angiogenic activity: retain the angiogenic activity of SVVYGLR
